Measured values as given in article PMC10892818, “An Antiherpesviral Host-Directed Strategy Based on CDK7 Covalently Binding Drugs: Target-Selective, Picomolar-Dose, Cross-Virus Reactivity” (Pharmaceutics, 2024).
In brackets after ≈: the same amount, converted by molar mass.

Assays:
Solubility (SolRank) = assay type: physicochemical; details: pH 7.4
PAMPA = assay type: in vitro ADME; details: pH 7.4
[1] = Caco-2 permeability assay; assay type: in vitro ADME; details: human
[2] = assay type: in vitro ADME
[3] = assay type: in vitro ADME; remark: listed apart in the source
[4] = Plasma protein binding, mouse; assay type: in vitro ADME; details: read-out: Plasma protein binding (% bound) mouse (converted)
[5] = Plasma protein binding, human; assay type: in vitro ADME; details: read-out: Plasma protein binding (% bound) human (converted)
in vivo = experiment: in vivo
Procedure: Later, this drug served as the parental compound for the generation of novel covalently binding CDK7-directed warheads (Figure 2A, panels a–h). To reveal LDC4297, a chemical library was designed in silico for the targeting of kinases and was applied for screening against human CDK7–cyclin H–MAT1 by the use of in vitro kinase assays. […] In particular, a kinome-wide analysis with 333 individual kinases was performed to assess compound selectivity in vitro.
(A) Chemical linkage of an acceptor for the Michael 1,4 addition reaction was performed to generate QRS compounds 6, 7, and 9. Through the covalent binding of host target CDK7, a block of virus-supportive functions was achieved, and further details on this antiviral strategy were described elsewhere (a,b; c,d, this study, and Yu et al., in preparation; d–f; f–h). (B) Determination of in vitro eADME parameters (early […]-distribution-metabilism-excretion) and pharmacokinetics (PK) parameters, including mean plasma concentrations in vivo (male CD-1® mice).

HCMV AD169-GFP = system: HCMV AD169-GFP; set-up: method as in PMID 25624324; details: read-out: antiviral EC50 value (HCMV); cited from earlier work
human CDK7–cyclin H–MAT1 = system: human CDK7–cyclin H–MAT1; set-up: method as in PMID 25624324; details: cited from earlier work
CDK7–cyclin H–MAT1 = target: T1, CDK7–cyclin H–MAT1 (Homo sapiens, UniProt P50613); set-up: method as in PMID 25624324; details: kinome-wide panel of 333 kinases; cited from earlier work
T1 construct: purchased Invitrogen PR6749B
T1 sequence (P50613 whole entry): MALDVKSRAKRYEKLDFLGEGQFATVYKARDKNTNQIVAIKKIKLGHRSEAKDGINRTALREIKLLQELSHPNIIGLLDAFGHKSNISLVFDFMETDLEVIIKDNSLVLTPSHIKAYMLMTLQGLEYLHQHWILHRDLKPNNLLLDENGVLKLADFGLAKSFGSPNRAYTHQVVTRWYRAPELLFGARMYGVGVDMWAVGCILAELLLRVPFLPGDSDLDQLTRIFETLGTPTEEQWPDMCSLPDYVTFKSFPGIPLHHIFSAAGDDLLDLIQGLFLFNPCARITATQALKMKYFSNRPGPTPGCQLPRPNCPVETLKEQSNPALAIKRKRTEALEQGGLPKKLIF
T1 sequence (P51946 whole entry partner): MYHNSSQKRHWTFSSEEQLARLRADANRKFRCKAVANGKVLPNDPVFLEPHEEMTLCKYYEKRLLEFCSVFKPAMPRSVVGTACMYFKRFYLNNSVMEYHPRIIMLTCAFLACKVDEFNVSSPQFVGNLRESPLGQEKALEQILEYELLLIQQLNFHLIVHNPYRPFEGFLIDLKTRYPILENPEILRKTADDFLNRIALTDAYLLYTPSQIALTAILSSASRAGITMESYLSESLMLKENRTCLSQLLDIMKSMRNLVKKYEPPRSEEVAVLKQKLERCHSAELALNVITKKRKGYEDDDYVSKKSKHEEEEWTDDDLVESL
T1 sequence (P51948 whole entry partner): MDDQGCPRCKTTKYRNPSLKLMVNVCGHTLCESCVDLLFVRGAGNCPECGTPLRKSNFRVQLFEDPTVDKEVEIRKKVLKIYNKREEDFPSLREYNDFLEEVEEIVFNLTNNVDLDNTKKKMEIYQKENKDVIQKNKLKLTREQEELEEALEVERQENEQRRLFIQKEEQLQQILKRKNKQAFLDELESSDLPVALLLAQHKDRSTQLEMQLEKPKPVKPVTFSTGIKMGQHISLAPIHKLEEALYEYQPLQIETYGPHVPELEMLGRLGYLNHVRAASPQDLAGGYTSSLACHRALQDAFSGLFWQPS

HCMV-encoded vCDK/pUL97 = system: HCMV-encoded vCDK/pUL97; set-up: method as in PMID 37591314; details: cited from earlier work
[6] = male, CD-1, mouse, in vivo, po, 100 mg/kg

For `CC(C)c1cnn2c(NCc3ccccc3-n3cccn3)nc(OC3CCCNC3)nc12` (centres unmarked) [LDC4297], which solubility (Solubility (SolRank)) is on record?
The solubility was 373 µM (≈ 162 µg/mL).

What about the “PAMPA (% Flux)” value (PAMPA) of the same compound?
The value was 76.25 % Flux.

What about the Papp A→B ([1]; A→B) of the same compound?
The Papp A→B was 15.4 ×10⁻⁶ cm/s.

And the efflux ratio ([1]; efflux ratio, read-out: Caco-2 permeability B→A / A→B)?
The efflux ratio was 1.57.

What about the “Plasma stability (% remain) mouse” value [2] of the same compound?
The value was 100.0 % remain.

What about the “Plasma stability (% remain) human” value [3] of the same compound?
Its value is 91.6 % remain.

And the fraction unbound [4]?
The fraction unbound was 0.0951.

What about the fraction unbound [5] of the same compound?
Its fraction unbound is 0.142.

What about the AUC(0-inf) (in vivo; [6]) of the same compound?
The AUC(0-inf) was 3620 ng·h/mL.

And the AUC(0-t) (in vivo; [6])?
Its AUC(0-t) is 3520 ng·h/mL.

What about the Cmax (in vivo; [6]) of the same compound?
The Cmax was 1300 ng/mL.

What about the Tmax (in vivo; [6]) of the same compound?
The Tmax was 0.5 h.

And the bioavailability (in vivo; [6])?
The bioavailability was 97.7%.

And the half-life (in vivo; [6])?
The half-life was 1.6 h.

What about the tz (in vivo; [6]) of the same compound?
Its tz is 8 h.

What about the concentration at 8 h (in vivo; male, CD-1, mouse, in vivo, po, 100 mg/kg, Cz, mouse 100 mg/kg p.o.) of the same compound?
The concentration at 8 h was 43.2 ng/mL.

What about the concentration at 0 min (in vivo; male, CD-1, mouse, in vivo, po, 100 mg/kg, Mean plasma concentration, mouse 100 mg/kg p.o., sampling time 0 min) of the same compound?
The concentration at 0 min was 0 ng/mL.

And the concentration at 30 min (in vivo; male, CD-1, mouse, in vivo, po, 100 mg/kg, Mean plasma concentration, mouse 100 mg/kg p.o., sampling time 30 min)?
The concentration at 30 min was > 1200 ng/mL.

And the concentration at 90 min (in vivo; male, CD-1, mouse, in vivo, po, 100 mg/kg, Mean plasma concentration, mouse 100 mg/kg p.o., sampling time 90 min)?
The concentration at 90 min was 713 ± 411 ng/mL.

What about the concentration at 240 min (in vivo; male, CD-1, mouse, in vivo, po, 100 mg/kg, Mean plasma concentration, mouse 100 mg/kg p.o., sampling time 240 min) of the same compound?
Its concentration at 240 min is 373 ± 108 ng/mL.

What about the concentration at 480 min (in vivo; male, CD-1, mouse, in vivo, po, 100 mg/kg, Mean plasma concentration, mouse 100 mg/kg p.o., sampling time 480 min) of the same compound?
The concentration at 480 min was 43.2 ± 44 ng/mL.

What about the Mean plasma concentration (in vivo; mouse 100 mg/kg p.o., sampling time 30 min) of the same compound?
The Mean plasma concentration was 1297.6 ± 678.0 ng/mL.

And the EC50 (HCMV AD169-GFP)?
The EC50 was 24.5 ± 1.3 nM.

And the IC50 (human CDK7–cyclin H–MAT1)?
Its IC50 is < 5 nM.

And the “residual activity in the presence of LDC4297” value (CDK7–cyclin H–MAT1)?
Its value is 2%.

What about the “secondary targeting activity against vCDK/pUL97” value (HCMV-encoded vCDK/pUL97) of the same compound?
Its value is “lack of a secondary targeting activity”.
